The values below come from US10646484B2, “Methods to treat opioid use disorder” (Indivior UK Limited, priority 2017, dated 2020).

For the first data set, the system named is opioid-dependent subjects. Kind of data set: Concentration-QT analysis pooled across clinical studies. The note with it: concentration-QT model covariate. How it is done: A concentration QT analysis was performed for the clinical studies conducted with Formulation D. Matching buprenorphine and norbuprenorphine plasma concentrations and 12-lead electrocardiograms (ECGs) were pooled across clinical studies conducted with Formulation D in opioid-dependent subjects. Concentration-QT models were developed to describe the effects of buprenorphine and norbuprenorphine on corrected QT (QTc) interval, after accounting for the effect of relevant concomitant medications and illicit drug use on heart rate and/or QT in opioid-dependent subjects. Data from the following studies were included in the analysis:
Stable doses of SUBUTEX® tablets ranged between 8 and 24 mg depending on the dose cohort.
Twenty subjects received SUBOXONE® film alone.
Subjects were inducted using SUBOXONE® film for 3 days, followed by 4- to 11-day SUBOXONE® film dose adjustment at doses ranging from 8 to 24 mg QD. SUBOXONE® film was tapered in subjects after amendment of study protocol (Day 1: 6 mg, Days 2 and 3: 4 mg, Days 4 and 5: 2 mg).
The following covariates were evaluated on alpha given their potential to affect heart rate: withdrawal symptoms (as measured by Clinical Opiate Withdrawal Scale (COWS)), clonidine and methocarbamol (used to treat withdrawal symptoms), cocaine, phencyclidine, cannabinoids, barbiturates, and methamphetamines (illicit drugs), amphetamines (taken for therapeutic, e.g., attention-deficit/hyperactivity disorder or illicit use), as well as albuterol (known to increase heart rate).
The following covariates were evaluated on QTcAbs: sex, age, opioids known to have an effect on QTc (methadone, oxycodone), opioids that may have an effect on QTc (hydrocodone, morphine, hydromorphone, oxymorphone, heroin, codeine), or opioids (as a general class, with exact type not recorded in CRF), benzodiazepines, barbiturates, triplicate vs single ECG readings, central vs non-centrally read ECGs, and Holter vs non-Holter. Covariates were selected using individual steps of backward elimination. The concentration-related slope was added and the model was refined. Bootstrap and visual predictive checks were conducted to evaluate model performance.
In addition, the bias-corrected two-sided 90% confidence interval of the Delta QTc distribution was determined using the boot package in R (boot( ) function), where an additional nonparametric bootstrap was performed. If the upper limit of the 90% confidence interval was <10 msec, then an effect of Formulation D on QTc was to be ruled out.
Turning to `COC(=O)[C@H]1[C@@H](OC(=O)c2ccccc2)C[C@@H]2CC[C@H]1N2C` [cocaine], the “change in QTc associated with concomitant or illicit drug (covariate on QTc)” value (“change in QTc associated” for short) was “+1.7 msec”.

Consider `COc1ccc2c3c1O[C@H]1[C@@H](O)C=C[C@H]4[C@@H](C2)N(C)CC[C@@]341` [codeine], for which the “change in QTc associated” value is recorded as “+1.3 msec”. The same measure, in the same setting: the result for `CCC(=O)C(CC(C)N(C)C)(c1ccccc1)c1ccccc1` (stereo not drawn) [methadone] reads “+6.1 msec”. The same measure, in the same setting: the result for `COc1ccc2c3c1O[C@H]1C(=O)CC[C@@]4(O)[C@@H](C2)N(C)CC[C@]314` [oxycodone] reads -1.5 ms.

Regarding `c1ccc(C2(N3CCCCC3)CCCCC2)cc1` [phencyclidine], the “change in QTc associated” value was “+3.4 msec”.

Still in this data set, the particulars now being: human, in vivo.
`OCCOCCN1CCN(C(c2ccccc2)c2ccc(Cl)cc2)CC1` (stereo not drawn) [hydroxyzine]: the “change in QTc associated” value is on record as “+1.7 msec”.
